Test results reported in patent US8541444B2, “Triazolopyridine 11-beta hydroxysteroid dehydrogenase type I inhibitors” (Bristol-Myers Squibb Company, priority 2007, dated 2013).

Key:
11beta-HSD1 = biological target: T1, 11beta-HSD1 (Mus musculus, UniProt P50172); test: In vivo inhibition of 11beta-HSD1: DHC to corticosterone conversion in DIO mice; conditions: 30 mpk oral, plasma corticosterone AUC after DHC 10 mg/kg given 60 minutes post compound
T1 construct: from tissue; host or cells: whole animal: diet induced obese (DIO) mice, Jackson Laboratory
T1 sequence (P50172 whole entry): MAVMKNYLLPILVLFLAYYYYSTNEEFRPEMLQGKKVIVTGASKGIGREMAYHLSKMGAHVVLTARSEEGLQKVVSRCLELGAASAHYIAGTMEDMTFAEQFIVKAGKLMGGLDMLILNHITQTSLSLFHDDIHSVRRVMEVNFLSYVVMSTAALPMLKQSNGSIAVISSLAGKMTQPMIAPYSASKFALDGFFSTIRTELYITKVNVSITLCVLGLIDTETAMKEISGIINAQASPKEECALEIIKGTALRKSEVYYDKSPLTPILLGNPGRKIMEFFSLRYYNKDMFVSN
Description: The in vivo inhibition of […] 11beta-HSD1 was determined as follows.
Studies were conducted utilizing diet induced obese (DIO) mice obtained from Jackson Laboratory (ME, USA). These mice were fed a 60% fat diet (Research Diets D12492) soon after weaning and kept on this diet for 24 weeks. These mice were individually housed. […]. The animals continued on this diet and were utilized for experimentation at 30 to 32 weeks of age, at which time these mice weighed 45 to 55 grams.
The basic model of 11-dehydrocorticosterone (DHC) administration to mice to produce corticosterone has been reported in the literature for clinical and preclinical evaluation of the activity of 11β-HSD. […] Plasma was separated and collected and immediately frozen at −20° C. until corticosterone analysis could be assessed.
Plasma Corticosterone was measured using an EIA (IDS AC-14F1). Samples were measured at (1:2) for the −30(or −60 minute) and 0 time point and (1:10) for the 30, 60 and 120 minutes time points. AUC was calculated using Graphpad and the zero timepoint was used as the baseline. One way ANOVA was calculated using Sigmastat. […]
The vehicle utilized for the suspension of the compounds was 0.5% methocel; 0.1% tween 80 in water. […] Compounds were administered in 7.5 ml/kg volumes at final dosages of 0.1 to 300 mg/kg depending on the study and compound evaluated.

[1] = biological target: T2, recombinant human 11beta-HSD1 (Homo sapiens, UniProt P28845); test: 11β-HSD1 SPA enzyme assay (in vitro inhibition of recombinant human 11beta-HSD1); type: biochemical; conditions: human 11β-HSD1 microsomes from HEK 293 EBNA cells, 3H-cortisone 40 nM, 4 hrs room temperature
T2 construct: Full length recombinant human 11β-HSD1 cDNAs and the cDNA encoding human 11β-HSD2 were expressed stably in HEK 293 EBNA cells; made in house; microsome fraction used
T2 sequence (P28845 whole entry): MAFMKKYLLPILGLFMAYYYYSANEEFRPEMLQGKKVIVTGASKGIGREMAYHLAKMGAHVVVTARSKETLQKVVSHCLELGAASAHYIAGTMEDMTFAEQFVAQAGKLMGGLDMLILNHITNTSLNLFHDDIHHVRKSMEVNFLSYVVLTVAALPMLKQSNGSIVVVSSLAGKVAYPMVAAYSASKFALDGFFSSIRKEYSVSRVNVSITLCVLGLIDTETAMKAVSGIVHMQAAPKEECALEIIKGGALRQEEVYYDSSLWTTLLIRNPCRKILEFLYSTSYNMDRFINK
Description: The in vitro inhibition of recombinant human 11beta-HSD1 was determined as follows.
The supernatant was further centrifuged at 105,000×g for […]. The 105,000×g pellet was resuspended in buffer H and centrifuged at 105,000×g for 60 min. […] Aliquots were stored at −80° C. until needed. The protein concentration was measured by the BioRad method using BSA standard.
Compounds were dissolved in DMSO to obtain 10 mM stock concentrations. From the 10 mM stock, the compounds were diluted in DMSO to achieve the concentrations.
11β-HSD1 SPA Enzyme Assay
11β-HSD1 was assayed by Scintillation Proximity assay in a 384-well Perkin Elmer white plate. The dose response of the compounds was determined using 11 half-log dilutions of compound in DMSO in duplicate. To each well, 0.5 μl of compound dilution in DMSO were added. 15 μl of assay buffer (for blanks) or 15 μl of human microsomes in assay buffer were added next and the plates were incubated for 10 min at room temperature. The final microsomal protein concentration was 1.1 μg/assay. Duplicates were in the same plate one row below the other. 10 μl of ^3H-cortisone (final concentration 40 nM) was added to each well and the plate was spun down to mix and bring down the contents to the bottom of the wells. The plates were incubated at room temperature with gentle shaking for 4 hrs. […] Then, 0.5 mg of yttrium silicate SPA beads coupled to anti-cortisol antibody in 20 μl were added to all the wells of plate, which were spun down once more and incubated at room temperature overnight. The plate was read in a TopCount® (1 min/well). Data were uploaded automatically to Tool Set, a Lead Evaluation informatics program for data capture and calculation. Graphs were generated with the Curve Master program.

Moisture sorption study = type: physicochemical; conditions: Form N-1 of the HCl salt; range from about 25 to about 75% RH at 25° C.
Description: Moisture sorption isotherms were collected in a VTI SGA-100 Symmetric Vapor Analyzer using approximately 10 mg of sample. The sample was dried at 60° C. until the loss rate of 0.0005 wt %/min was obtained for 10 minutes. The sample was tested at 25° C. and 3 or 4, 5, 15, 25, 35, 45, 50, 65, 75, 85, and 95% RH. Equilibration at each RH was reached when the rate of 0.0003 wt %/min for 35 minutes was achieved or a maximum of 600 minutes.

CC(C)(O)c1cccn2c(C3(c4ccc(Cl)cc4)CC3)nnc12 [Example 1, 2-(3-(1-(4-Chlorophenyl)cyclopropyl)-[1,2,4]triazolo[4,3-a]pyridin-8-yl) propan-2-ol]
inhibition at 30 mg/kg (11beta-HSD1): 53%
IC50 [1]: 2.3 nM

CC(C)(O)c1cccn2c(C3(c4ccc(Cl)cc4)CC3)nnc12.Cl [Example 1G, 2-(3-(1-(4-Chlorophenyl)cyclopropyl)-[1,2,4]triazolo[4,3-a]pyridin-8-yl)propan-2-ol HCl Salt]
hygroscopicity (moisture sorption isotherm) (Moisture sorption study): non-hygroscopic

CC(C)(O)c1cccc2c(C3(c4ccc(Cl)cc4)CC3)nnn12 [Example 6, 2-(3-(1-(4-Chlorophenyl)cyclopropyl)-[1,2,3]-triazolo[1,5-a]pyridin-7-yl) propan-2-ol]
IC50 [1]: 20 nM

CC(C)(O)c1cccn2c(C3(c4ccc(Cl)cc4)CCC3)nnc12 [Example 11]
inhibition at 30 mg/kg (11beta-HSD1): 69%

CC(C)(O)c1cccn2c(C3(c4ccc(Cl)c(Cc5nnn[nH]5)c4)CC3)nnc12 [Example 42]
IC50 [1]: 72 nM

CC(C)(O)c1cccn2c(C3(c4ccc(-c5ccc(F)cc5)cc4)CC3)nnc12 [Example 51]
IC50 [1]: 0.4 nM

CC(C)(O)c1cccn2c(C3(c4ccc(Cl)cc4F)CC3)nnc12 [Example 54]
IC50 [1]: 0.7 nM

CC(C)(c1cccn2c(C3(c4ccc(Cl)cc4)CCC3)nnc12)c1nnnn1CCC#N [Example 59]
IC50 [1]: 5490 nM

CC(C)(O)c1cccn2c(C3(C(=O)O)CC3)nnc12 [Example 80]
IC50 [1]: 7700 nM

CN(C)C(=O)c1ccc(C2(c3nnc4c(C(C)(C)O)cccn34)CC2)cc1 [Example 86]
IC50 [1]: 35 nM

Cc1ccc(S(=O)(=O)C2(c3nnc4c(C(C)(C)O)cccn34)CC2)cc1C [Example 90]
IC50 [1]: 1380 nM

CC(C)(O)c1cccn2c(C3(c4nc(-c5ccccc5)c[nH]4)CC3)nnc12 [Example 104]
IC50 [1]: 191 nM

CC(C)(O)c1cccn2c(C3(c4nc(-c5ccc(F)cc5)cs4)CC3)nnc12 [Example 109]
IC50 [1]: 0.6 nM

CC(C)(O)c1cccn2c(C3(c4nnn(Cc5ccc(F)cc5)n4)CC3)nnc12 [Example 110]
IC50 [1]: 104 nM

CC(C)(O)c1cccn2c(C3(c4nc(-c5ccc(Cl)cc5)cs4)CC3)nnc12 [Example 111]
IC50 [1]: 0.5 nM

CC(C)(O)c1cccn2c(C3(c4nnn(Cc5ccccc5)n4)CC3)nnc12 [Example 112]
IC50 [1]: 2820 nM
